Results on 30 compounds are retold here after article PMC8286840, “Identifying SARS-CoV-2 antiviral compounds by screening for small molecule inhibitors of Nsp3 papain-like protease” (Biochemical Journal, 2021).

In assay [1] the target is T1, SARS-CoV-2 PLpro (nsp3 1564–1878) (Severe acute respiratory syndrome coronavirus 2, UniProt P0DTD1). Put plainly: biochemical. On the set-up: FRET-quenched peptide (Pro3) cleavage by PLpro, 10 min pre-incubation, slope over 20 min, normalised to no-compound control. As to conditions: high concentration screen, read-out: % of control remaining.
Assay [2] deals with T1, SARS-CoV-2 PLpro (nsp3 1564–1878). Put plainly: biochemical. On the set-up: FRET-quenched peptide (Pro3) cleavage by PLpro, 10 min pre-incubation, slope over 20 min, normalised to no-compound control. Conditions: low concentration screen, read-out: % of control remaining.

Where a name gives a salt, the structure may show the parent alone. Read-outs that look alike come from different tables or passages of the source.

For `O=C(O)c1ccc(CO)o1` [5-Hydroxymethyl-2-furancarboxylic acid], the remaining activity at 3.75 µM in assay [1] (Well no.=6689) is 98.1%. Further, the remaining activity at 1.25 µM in assay [2] (Well no.=6689) stood at 97.9%.
Take `O=c1[nH]cc(CO)c(=O)[nH]1` [5-Hydroxymethyluracil]: the remaining activity at 3.75 µM in assay [1] (Well no.=6499) was 101%. Besides, the remaining activity at 1.25 µM in assay [2] (Well no.=6499) is 99.6%.
With `Nc1ncnc2c1c(I)cn2[C@@H]1O[C@H](CO)[C@@H](O)[C@H]1O` [5-Iodotubercidin], the remaining activity at 3.75 µM in assay [1] (Well no.=2479) was found to be 101%. For the same compound, in assay [2] (Well no.=2479), the remaining activity at 1.25 µM came to 100%.
In the case of `COc1cccc2oc(-c3ccccc3)cc(=O)c12` [5-Methoxyflavone], in assay [1] (Well no.=3453), the remaining activity at 3.75 µM was 90.5%. Besides, in assay [2] (Well no.=3453), the remaining activity at 1.25 µM worked out at 92.1%.
On to `Cc1cn([C@H]2C[C@H](O)[C@@H](CO)O2)c(=O)nc1N` [5-Methyl-2'-deoxycytidine], for which the remaining activity at 3.75 µM in assay [1] (Well no.=7493) was 105%; in assay [1] (Well no.=7720) it was 102%. The remaining activity at 1.25 µM in assay [2] (Well no.=7493) was 104%; in assay [2] (Well no.=7720), 98.8%.
Regarding `Cc1cn([C@@H]2O[C@H](CO)[C@@H](O)[C@H]2O)c(=O)nc1N` [5-Methylcytidine], the remaining activity at 3.75 µM in assay [1] (Well no.=6585) turned out to be 104%; in assay [1] (Well no.=8853), 88.8%. Also, the remaining activity at 1.25 µM in assay [2] (Well no.=6585) was found to be 103%; in assay [2] (Well no.=8853) it was 100%.
For `Cc1cn([C@@H]2O[C@H](CO)[C@@H](O)[C@H]2O)c(=O)[nH]c1=O` [5-Methyluridine], the values for the remaining activity at 3.75 µM in assay [1] (Well no.=6213) and in assay [1] (Well no.=8891) were 91.5% and 98.5%, respectively. The remaining activity at 1.25 µM in assay [2] (Well no.=6213) came out at 101%; in assay [2] (Well no.=8891) it was 96.6%.
As for `O=C(O)c1cc([N+](=O)[O-])ccc1NCCCc1ccccc1` [5-Nitro-2-(3-phenylpropylamino)benzoic acid], the remaining activity at 3.75 µM in assay [1] (Well no.=1047) was 99.3%. Further, in assay [2] (Well no.=1047), the remaining activity at 1.25 µM was 99.5%.
Regarding `CN(C)c1ccc(C2Nc3ccc4ccccc4c3C3=C2C(=O)CC(C)(C)C3)cc1Br` (stereo not drawn) [5-[3-bromo-4-(dimethylamino)phenyl]-2,2-dimethyl-2,3,5,6-tetrahydrobenzo[a]phenanthridin-4(1H)-one], in assay [1] (Well no.=5515), the remaining activity at 3.75 µM worked out at 106%. Also, the remaining activity at 1.25 µM in assay [2] (Well no.=5515) worked out at 106%.
As to `Nc1ncn([C@@H]2O[C@H](CO)[C@@H](O)[C@H]2O)c(=O)n1` [5-azacytidine], the remaining activity at 3.75 µM in assay [1] (Well no.=155) stood at 96.6%. The remaining activity at 1.25 µM in assay [2] (Well no.=155) stood at 95.5%.
In the case of `OB1OCc2cc(F)ccc21` [5-fluoro-2,1-benzoxaborol-1(3H)-ol], the remaining activity at 3.75 µM in assay [1] (Well no.=5477) is 109%. The remaining activity at 1.25 µM in assay [2] (Well no.=5477) was 103%.
As for `C[C@H]1O[C@@H](n2cc(F)c(=O)[nH]c2=O)[C@H](O)[C@@H]1O` [5-fluoro-5'-deoxyuridine], in assay [1] (Well no.=663), the remaining activity at 3.75 µM is 98.8%. For the same compound, the remaining activity at 1.25 µM in assay [2] (Well no.=663) came out at 102%.
As to `COc1ccc(-c2cc(=O)c3c(O)c(OC)c(OC)cc3o2)cc1O` [5-hydroxy-2-(3-hydroxy-4-methoxyphenyl)-6,7-dimethoxy-4H-chromen-4-one], in assay [1] (Well no.=5983), the remaining activity at 3.75 µM came to 95.3%. The remaining activity at 1.25 µM in assay [2] (Well no.=5983) was 98.6%.
Take `O=c1cc(CO)occ1O` [5-hydroxy-2-(hydroxymethyl)-4H-pyran-4-one]: the remaining activity at 3.75 µM in assay [1] (Well no.=5437) was found to be 113%. For the same compound, in assay [2] (Well no.=5437), the remaining activity at 1.25 µM was found to be 109%.
`CCCCCC(O)CCCC(=O)O` (stereo not drawn) [5-hydroxydecanoic acid sodium]: in assay [1] (Well no.=714), the remaining activity at 3.75 µM came out at 85.9%. In assay [2] (Well no.=714), the remaining activity at 1.25 µM turned out to be 88.7%.
For the compound `COC(=O)C1=C(C#N)NC(C)=C(C(=O)OC(C)C)C1c1cccc([N+](=O)[O-])c1` (stereo not drawn) [5-isopropyl 3-methyl 2-cyano-6-methyl-4-(3-nitrophenyl)-1,4-dihydro-3,5-pyridinedicarboxylate], the remaining activity at 3.75 µM in assay [1] (Well no.=6056) was 89.3%. In addition, the remaining activity at 1.25 µM in assay [2] (Well no.=6056) is 94%.
In the case of `C[n+]1c2ccccc2nc2ccccc21` [5-methylphenazin-5-ium methyl sulfate], the remaining activity at 3.75 µM in assay [1] (Well no.=5668) stood at 89.8%. The remaining activity at 1.25 µM in assay [2] (Well no.=5668) came out at 91.9%.
For the compound `CC(C)c1cccc(C(C)C)c1N1C(=O)c2ccc(O)cc2C1=O` [5HPP-33], in assay [1] (Well no.=6085), the remaining activity at 3.75 µM came to 99.4%. In assay [2] (Well no.=6085), the remaining activity at 1.25 µM was 101%.
For `CC(=O)[C@H]1CC[C@H]2[C@@H]3CC[C@H]4CC(=O)CC[C@]4(C)[C@H]3CC[C@]12C` [5a-Pregnane-3,20-dione], the remaining activity at 3.75 µM in assay [1] (Well no.=7357) is 105%. Moreover, the remaining activity at 1.25 µM in assay [2] (Well no.=7357) was determined as 106%.
`C[C@]12CC[C@@H](O)C[C@@H]1CC[C@@H]1[C@@H]2CC[C@]2(C)[C@@H](O)CC[C@@H]12` [5alpha-Androstane-3alpha,17beta-diol]: the remaining activity at 3.75 µM in assay [1] (Well no.=244) was found to be 94.8%. For the same compound, the remaining activity at 1.25 µM in assay [2] (Well no.=244) came to 98.9%.
Regarding `O=c1[nH]c2ccccc2c2ccccc12` [6(5H)-Phenanthridinone], the remaining activity at 3.75 µM in assay [1] (Well no.=1305) came to 107%. Further, the remaining activity at 1.25 µM in assay [2] (Well no.=1305) is 104%.
As to `CCCCCCCCCCC/C=C/CCCCC(=O)O` [6(E)-Octadecenoic acid], the remaining activity at 3.75 µM in assay [1] (Well no.=4318) amounted to 99.5%. For the same compound, in assay [2] (Well no.=4318), the remaining activity at 1.25 µM stood at 105%.
In the case of `CC/C=C\C/C=C\C/C=C\C/C=C\CCCCC(=O)O` [6(Z), 9(Z), 12(Z), 15(Z)-Octadecatetraenoic acid], the remaining activity at 3.75 µM in assay [1] (Well no.=4398) was 97.4%. In addition, the remaining activity at 1.25 µM in assay [2] (Well no.=4398) was 101%.
For the compound `CCCCC/C=C\C/C=C\C/C=C\CCCCC(=O)O` [6(Z), 9(Z), 12(Z)-Octadecatrienoic Acid], the remaining activity at 3.75 µM in assay [1] (Well no.=4360) stood at 107%. Moreover, in assay [2] (Well no.=4360), the remaining activity at 1.25 µM stood at 107%.
With `CCCCCCCCCCC/C=C\CCCCC(=O)O` [6(Z)-Octadecenoic acid], the remaining activity at 3.75 µM in assay [1] (Well no.=4316) turned out to be 98.8%. For the same compound, the remaining activity at 1.25 µM in assay [2] (Well no.=4316) turned out to be 103%.
For the compound `NC1CCc2cc(O)c(O)cc2C1` (stereo not drawn) [6,7-ADTN hydrobromide], the remaining activity at 3.75 µM in assay [1] (Well no.=444) was found to be 104%. In addition, the remaining activity at 1.25 µM in assay [2] (Well no.=444) was 101%.
Take `O=c1cc(-c2ccccc2)oc2cc(O)c(O)cc12` [6,7-Dihydroxyflavone]: the remaining activity at 3.75 µM in assay [1] (Well no.=3441) turned out to be 98.9%. Besides, the remaining activity at 1.25 µM in assay [2] (Well no.=3441) came out at 100%.
As to `Fc1cc(F)c2c(c1)C1C=CCC1C(c1cccnc1)N2` (stereo not drawn) [6,8-difluoro-4-(3-pyridinyl)-3a,4,5,9b-tetrahydro-3H-cyclopenta[c]quinoline], the remaining activity at 3.75 µM in assay [1] (Well no.=5390) is 91.3%. Moreover, in assay [2] (Well no.=5390), the remaining activity at 1.25 µM came out at 97.2%.
As to `CC(=O)N[C@H]1CN2CC[C@H](O)[C@@H]2[C@@H](O)[C@@H]1O` [6-Acetamido-6-deoxy-castanospermine], the remaining activity at 3.75 µM in assay [1] (Well no.=3294) worked out at 99.3%. Also, the remaining activity at 1.25 µM in assay [2] (Well no.=3294) is 97.4%.
For the compound `NCCCCCC(=O)O` [6-Aminohexanoic acid], in assay [1] (Well no.=6), the remaining activity at 3.75 µM stood at 102%. In addition, in assay [2] (Well no.=6), the remaining activity at 1.25 µM amounted to 101%.
